# Experiments:
# giant foxtail [1] = experiment: Test A pre-/postemergence greenhouse test; assay type: in vivo, Setaria faberi; conditions: for Plant response rating, Foxtail, Giant: 0 to 100 scale where 0 is no effect and 100 is complete control; for Foxtail, Giant plant response rating: 0 to 100 scale
# Procedure, shortened: (§1)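 Two application timings were run side by side in the greenhouse. Before emergence, compound went onto the soil surface of loam–sand pots as a directed spray; after emergence, plants at 2–10 cm and the one- to two-leaf stage were treated. Visual injury versus controls was rated at approximately day ten.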
# morningglory = experiment: Test A pre-/postemergence greenhouse test; assay type: in vivo, Ipomoea spp.; conditions: for Plant response rating, Morningglory: 0 to 100 scale where 0 is no effect and 100 is complete control; for Morningglory plant response rating: 0 to 100 scale
# Procedure, shortened: as §1
# redroot pigweed = experiment: Test A pre-/postemergence greenhouse test; assay type: in vivo, Amaranthus retroflexus; conditions: for Plant response rating, Pigweed: 0 to 100 scale where 0 is no effect and 100 is complete control; for Pigweed plant response rating: 0 to 100 scale
# Procedure, shortened: as §1
# wheat [2] = experiment: Test A pre-/postemergence greenhouse test; assay type: in vivo, Triticum aestivum; conditions: for Plant response rating, Wheat: 0 to 100 scale where 0 is no effect and 100 is complete control; for Wheat plant response rating: 0 to 100 scale
# Procedure, shortened: as §1
# blackgrass = experiment: Test C pre-/postemergence test; assay type: in vivo, Alopecurus myosuroides
# Procedure, shortened: (§2)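 Test chemicals were formulated with surfactant in a non-phytotoxic solvent and sprayed both on freshly planted seeds (preemergence) and on 1- to 4-leaf plants of 2–18 cm (postemergence). Flooded-paddy pots received compound directly into 3 cm of standing water, maintained for the test.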
# downy brome = experiment: Test C pre-/postemergence test; assay type: in vivo, Bromus tectorum
# Procedure, shortened: as §2
# wheat [3] = experiment: Test C pre-/postemergence test; assay type: in vivo, Triticum aestivum
# Procedure, shortened: as §2
# wild oat = experiment: Test C pre-/postemergence test; assay type: in vivo, Avena fatua
# Procedure, shortened: as §2
# catchweed bedstraw = experiment: Test C pre-/postemergence test; assay type: in vivo, Galium aparine
# Procedure, shortened: as §2
# Surinam grass = experiment: Test C pre-/postemergence test; assay type: in vivo, Brachiaria decumbens
# Procedure, shortened: as §2
# cocklebur = experiment: Test C pre-/postemergence test; assay type: in vivo, Xanthium strumarium; conditions: for Cocklebur plant response rating: preemergence, scale 0 (no effect) to 100 (complete control)
# Procedure, shortened: as §2
# woolly cupgrass = experiment: Test C pre-/postemergence test; assay type: in vivo, Eriochloa villosa
# Procedure, shortened: as §2
# giant foxtail [4] = experiment: Test C pre-/postemergence test; assay type: in vivo, Setaria faberii
# Procedure, shortened: as §2
# kochia = experiment: Test C pre-/postemergence test; assay type: in vivo, Kochia scoparia
# Procedure, shortened: as §2
# lambsquarters = experiment: Test C pre-/postemergence test; assay type: in vivo, Chenopodium album
# Procedure, shortened: as §2
# eastern black nightshade = experiment: Test C pre-/postemergence test; assay type: in vivo, Solanum ptycanthum
# Procedure, shortened: as §2
# common ragweed = experiment: Test C pre-/postemergence test; assay type: in vivo, Ambrosia elation
# Procedure, shortened: as §2
# [5] = test system: common (oilseed) sunflower; experiment: Test C pre-/postemergence test; assay type: in vivo, Helianthus annuus
# Procedure, shortened: as §2
# velvetleaf = experiment: Test C pre-/postemergence test; assay type: in vivo, Abutilon theophrasti
# Procedure, shortened: as §2
# [6] = Postemergence, 500 g ai/ha, 0 is no effect, 100 is complete control
# [7] = Preemergence, 125 g ai/ha, 0 no effect, 100 complete control
# [8] = 62 g ai/ha, Preemergence, scale 0 to 100
# [9] = 125 g ai/ha, preemergence, scale 0 (no effect) to 100 (complete control)
# [10] = Postemergence, 62 g ai/ha, scale 0 to 100, 0 no effect, 100 complete control
# [11] = Postemergence, 125 g ai/ha, scale 0 to 100, 0 no effect, 100 complete control
# [12] = Postemergence, 250 g ai/ha, scale 0 to 100, 0 no effect, 100 complete control
# [13] = Preemergence, 31 g ai/ha, scale 0 to 100 (0 no effect, 100 complete control)
# [14] = preemergence, 250 g ai/ha, scale 0 (no effect) to 100 (complete control)
smiles,measurement,setting,value
Cn1nc(C(F)(F)F)c(C[S+]([O-])c2ccc(Cl)c[n+]2[O-])c1OCC(F)(F)F (racemic) [Compound 62],"Plant response rating, Foxtail, Giant","giant foxtail [1]; Postemergence, 125 g ai/ha",90
same,"Foxtail, Giant plant response rating",giant foxtail [1]; [6],90
same,"Foxtail, Giant plant response rating",giant foxtail [1]; [7],100
same,"Plant response rating, Foxtail, Giant","giant foxtail [1]; Preemergence, 500 g ai/ha",100
same,"Plant response rating, Morningglory","morningglory; Postemergence, 125 g ai/ha",90
same,Morningglory plant response rating,morningglory; [6],100
same,Morningglory plant response rating,morningglory; [7],90
same,"Plant response rating, Morningglory","morningglory; Preemergence, 500 g ai/ha",100
same,"Plant response rating, Pigweed","redroot pigweed; Postemergence, 125 g ai/ha",60
same,Pigweed plant response rating,redroot pigweed; [6],80
same,Pigweed plant response rating,redroot pigweed; [7],100
same,"Plant response rating, Pigweed","redroot pigweed; Preemergence, 500 g ai/ha",100
same,"Plant response rating, Wheat","wheat [2]; Postemergence, 125 g ai/ha",60
same,Wheat plant response rating,wheat [2]; [6],60
same,Wheat plant response rating,wheat [2]; [7],70
same,"Plant response rating, Wheat","wheat [2]; Preemergence, 500 g ai/ha",100
same,Blackgrass plant response rating,blackgrass; [8],98
same,Blackgrass plant response rating,blackgrass; [9],100
same,"Plant response rating (0 to 100), Blackgrass","blackgrass; Postemergence, 31 g ai/ha",40
same,"Plant response rating, Blackgrass",blackgrass; [10],40
same,"Plant response rating, Blackgrass",blackgrass; [11],60
same,"Plant response rating, Blackgrass",blackgrass; [12],80
same,"Plant response rating, Blackgrass",blackgrass; [13],90
same,Blackgrass plant response rating,blackgrass; [14],100
same,"Bromegrass, Downy plant response rating",downy brome; [8],50
same,"Bromegrass, Downy plant response rating",downy brome; [9],70
same,"Plant response rating (0 to 100), Bromegrass, Downy","downy brome; Postemergence, 31 g ai/ha",0
same,"Plant response rating, Bromegrass, Downy",downy brome; [10],0
same,"Plant response rating, Bromegrass, Downy",downy brome; [11],45
same,"Plant response rating, Bromegrass, Downy",downy brome; [12],60
same,"Plant response rating, Bromegrass, Downy",downy brome; [13],50
same,"Bromegrass, Downy plant response rating",downy brome; [14],85
same,Wheat plant response rating,wheat [3]; [8],55
same,Wheat plant response rating,wheat [3]; [9],80
same,"Plant response rating (0 to 100), Wheat","wheat [3]; Postemergence, 31 g ai/ha",0
same,"Plant response rating (0 to 100), Wheat","wheat [3]; Postemergence, 62 g ai/ha",10
same,"Plant response rating, Wheat",wheat [3]; [11],55
same,"Plant response rating, Wheat",wheat [3]; [12],60
same,"Plant response rating, Wheat",wheat [3]; [13],40
same,Wheat plant response rating,wheat [3]; [14],95
same,"Oat, Wild plant response rating",wild oat; [8],85
same,"Oat, Wild plant response rating",wild oat; [9],95
same,"Plant response rating (0 to 100), Oat, Wild","wild oat; Postemergence, 31 g ai/ha",0
same,"Plant response rating, Oat, Wild",wild oat; [10],0
same,"Plant response rating, Oat, Wild",wild oat; [11],30
same,"Plant response rating, Oat, Wild",wild oat; [12],50
same,"Plant response rating, Oat, Wild",wild oat; [13],70
same,"Oat, Wild plant response rating",wild oat; [14],100
same,Galium plant response rating,catchweed bedstraw; [8],100
same,Galium plant response rating,catchweed bedstraw; [9],100
same,"Plant response rating, Galium",catchweed bedstraw; [13],100
same,Galium plant response rating,catchweed bedstraw; [14],100
same,Surinam Grass plant response rating,Surinam grass; [8],98
same,Surinam Grass plant response rating,Surinam grass; [9],100
same,"Plant response rating (0 to 100), Surinam Grass","Surinam grass; Postemergence, 31 g ai/ha",0
same,"Plant response rating (0 to 100), Surinam Grass","Surinam grass; Postemergence, 62 g ai/ha",0
same,"Plant response rating, Surinam Grass",Surinam grass; [11],0
same,"Plant response rating, Surinam Grass",Surinam grass; [12],60
same,"Plant response rating, Surinam Grass",Surinam grass; [13],80
same,Surinam Grass plant response rating,Surinam grass; [14],100
same,Cocklebur plant response rating,cocklebur; 125 g ai/ha,30
same,"Plant response rating (0 to 100), Cocklebur","cocklebur; Postemergence, 31 g ai/ha",0
same,"Plant response rating, Cocklebur",cocklebur; [10],0
same,"Plant response rating, Cocklebur",cocklebur; [11],0
same,"Plant response rating, Cocklebur",cocklebur; [12],0
same,"Plant response rating, Cocklebur",cocklebur; [13],0
same,Cocklebur plant response rating,cocklebur; 250 g ai/ha,60
same,"Cupgrass, Woolly plant response rating",woolly cupgrass; [8],70
same,"Cupgrass, Woolly plant response rating",woolly cupgrass; [9],100
same,"Plant response rating (0 to 100), Cupgrass, Woolly","woolly cupgrass; Postemergence, 31 g ai/ha",0
same,"Plant response rating, Cupgrass, Woolly",woolly cupgrass; [10],0
same,"Plant response rating, Cupgrass, Woolly",woolly cupgrass; [11],0
same,"Plant response rating, Cupgrass, Woolly",woolly cupgrass; [12],50
same,"Plant response rating, Cupgrass, Woolly",woolly cupgrass; [13],0
same,"Cupgrass, Woolly plant response rating",woolly cupgrass; [14],100
same,"Foxtail, Giant plant response rating",giant foxtail [4]; [8],100
same,"Foxtail, Giant plant response rating",giant foxtail [4]; [9],100
same,"Plant response rating (0 to 100), Foxtail, Giant","giant foxtail [4]; Postemergence, 31 g ai/ha",0
same,"Plant response rating, Foxtail, Giant",giant foxtail [4]; [10],0
same,"Plant response rating, Foxtail, Giant",giant foxtail [4]; [11],40
same,"Plant response rating, Foxtail, Giant",giant foxtail [4]; [12],70
same,"Plant response rating, Foxtail, Giant",giant foxtail [4]; [13],70
same,"Foxtail, Giant plant response rating",giant foxtail [4]; [14],100
same,Kochia plant response rating,kochia; [8],90
same,Kochia plant response rating,kochia; [9],100
same,"Plant response rating (0 to 100), Kochia","kochia; Postemergence, 31 g ai/ha",0
same,"Plant response rating, Kochia",kochia; [10],0
same,"Plant response rating, Kochia",kochia; [11],0
same,"Plant response rating, Kochia",kochia; [12],10
same,"Plant response rating, Kochia",kochia; [13],85
same,Kochia plant response rating,kochia; [14],100
same,Lambsquarters plant response rating,lambsquarters; [8],100
same,Lambsquarters plant response rating,lambsquarters; [9],100
same,"Plant response rating (0 to 100), Lambsquarters","lambsquarters; Postemergence, 31 g ai/ha",0
same,"Plant response rating, Lambsquarters",lambsquarters; [10],0
same,"Plant response rating, Lambsquarters",lambsquarters; [11],0
same,"Plant response rating, Lambsquarters",lambsquarters; [12],0
same,"Plant response rating, Lambsquarters",lambsquarters; [13],100
same,Lambsquarters plant response rating,lambsquarters; [14],100
same,Nightshade plant response rating,eastern black nightshade; [8],100
same,Nightshade plant response rating,eastern black nightshade; [9],100
same,"Plant response rating, Nightshade",eastern black nightshade; [13],100
same,Nightshade plant response rating,eastern black nightshade; [14],100
same,Ragweed plant response rating,common ragweed; [8],100
same,Ragweed plant response rating,common ragweed; [9],100
same,"Plant response rating (0 to 100), Ragweed","common ragweed; Postemergence, 31 g ai/ha",0
same,"Plant response rating (0 to 100), Ragweed","common ragweed; Postemergence, 62 g ai/ha",0
same,"Plant response rating, Ragweed",common ragweed; [11],0
same,"Plant response rating, Ragweed",common ragweed; [12],0
same,"Plant response rating, Ragweed",common ragweed; [13],100
same,Ragweed plant response rating,common ragweed; [14],100
same,Sunflower plant response rating,[5]; [8],75
same,Sunflower plant response rating,[5]; [9],80
same,"Plant response rating, Sunflower",[5]; [13],50
same,Sunflower plant response rating,[5]; [14],80
same,Velvetleaf plant response rating,velvetleaf; [8],90
same,Velvetleaf plant response rating,velvetleaf; [9],100
same,"Plant response rating (0 to 100), Velvetleaf","velvetleaf; Postemergence, 31 g ai/ha",0
same,"Plant response rating (0 to 100), Velvetleaf","velvetleaf; Postemergence, 62 g ai/ha",0
same,"Plant response rating, Velvetleaf",velvetleaf; [11],5
same,"Plant response rating, Velvetleaf",velvetleaf; [12],40
same,"Plant response rating, Velvetleaf",velvetleaf; [13],40
same,Velvetleaf plant response rating,velvetleaf; [14],100

# From patent US20100298141A1, “SUBSTITUTED PYRIDINE N-OXIDE HERBICIDES” (E. I. DU PONT DE NEMOURS AND COMPANY, priority 2007, published 2010)
